These are literature values, as cited in patent US20220202803A1, “COMBINATION THERAPIES INCLUDING INHIBITORS OF DIHYDROOROTATE DEHYDROGENASE” (Clear Creek Bio, Inc., priority 2019, published 2022).

The subject of one series is mouse model of AML. The note with it: daily administration of high doses.
In the next series the test system is solid tumor malignancies. The note with it: administered over a 5-day period followed by a 3-week gap or once per week for three weeks followed by a 1-week gap.

Regarding `Cc1c(-c2ccc(-c3ccccc3F)cc2)nc2ccc(F)cc2c1C(=O)O` [brequinar, 6-fluoro-2-(2′-fluoro-1,1′ biphenyl-4-yl)-3-methyl-4-quinoline carboxylic acid], in the series with mouse model of AML, the adverse effects result was “weight loss, anemia, and thrombocytopenia”. Also, the “efficacy in solid tumor malignancies” value in the series with solid tumor malignancies is on record as “ineffective”.
